Data from US10016438B2, “Bicyclic heterocycles as FGFR4 inhibitors” (Incyte Corporation, priority 2015, dated 2018).

Molecular target: FGFR4 (Homo sapiens (Human), UniProt P22455)
Assay: FGFR Enzymatic Assay (FRET peptide phosphorylation), FGFR4
Conditions: IC50 ratio showing FGFR4 selectivity
[1] = pre-incubated for 5 to 10 minutes

Chain of FGFR4 (P22455 22-802): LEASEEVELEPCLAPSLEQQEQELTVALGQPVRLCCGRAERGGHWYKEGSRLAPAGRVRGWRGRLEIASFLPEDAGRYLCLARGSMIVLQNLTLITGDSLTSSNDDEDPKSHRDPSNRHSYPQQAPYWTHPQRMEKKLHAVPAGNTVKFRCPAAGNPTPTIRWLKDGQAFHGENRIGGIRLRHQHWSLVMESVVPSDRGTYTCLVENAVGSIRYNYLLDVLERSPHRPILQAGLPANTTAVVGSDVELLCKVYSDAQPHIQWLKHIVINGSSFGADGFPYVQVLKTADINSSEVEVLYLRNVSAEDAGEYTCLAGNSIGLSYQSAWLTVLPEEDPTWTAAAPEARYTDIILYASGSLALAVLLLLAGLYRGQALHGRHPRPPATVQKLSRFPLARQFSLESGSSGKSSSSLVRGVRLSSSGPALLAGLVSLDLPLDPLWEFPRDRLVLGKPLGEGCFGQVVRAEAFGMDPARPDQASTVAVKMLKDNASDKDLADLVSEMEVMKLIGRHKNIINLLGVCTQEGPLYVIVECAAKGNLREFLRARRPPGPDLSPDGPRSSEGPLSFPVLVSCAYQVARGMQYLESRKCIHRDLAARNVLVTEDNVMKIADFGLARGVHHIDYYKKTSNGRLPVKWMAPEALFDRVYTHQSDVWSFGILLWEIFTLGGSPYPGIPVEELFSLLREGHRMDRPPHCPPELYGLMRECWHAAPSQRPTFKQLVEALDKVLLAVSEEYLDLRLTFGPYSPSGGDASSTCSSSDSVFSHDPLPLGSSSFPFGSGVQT
Description: The enzymes were purchased from Millipore or Invitrogen.
GraphPad prism3 was used to analyze the data. The IC50 values were derived by fitting the data to the equation for a sigmoidal dose-response with a variable slope. Y=Bottom+(Top−Bottom)/(1+10^((Log IC50−X)*HillSlope)) where X is the logarithm of concentration and Y is the response.

Row | FGFR1/FGFR4 (pre-incubated for 4 hours) | FGFR2/FGFR4 (pre-incubated for 4 hours) | FGFR3/FGFR4 (pre-incubated for 4 hours) | FGFR1/FGFR4 [1] | FGFR2/FGFR4 [1] | FGFR3/FGFR4 [1] | SMILES
1 | >100 | >100 | >100 | – | – | – | C=CC(=O)Nc1cnn(Cc2cnn(C)c2)c1-c1cc2c(cn1)CN(c1c(F)c(OC)cc(OC)c1F)C(=O)C21CC1 [Example 27, N-(5-(2′-(2,6-difluoro-3,5-dimethoxyphenyl)-3′-oxo-2′,3′-dihydro-1′H-spiro[cyclopropane-1,4′-[2,7]naphthyridine]-6′-yl)-1-((1-methyl-1H-pyrazol-4-yl)methyl)-1H-pyrazol-4-yl)acrylamide]
2 | >100 | >100 | >100 | – | – | – | C=CC(=O)Nc1cnn(C[C@@H]2CCOC2)c1-c1cc2c(cn1)CN(c1c(F)c(OC)cc(OC)c1F)C(=O)C21CC1 [Example 28, (S)-N-(5-(2′-(2,6-difluoro-3,5-dimethoxyphenyl)-3′-oxo-2′,3′-dihydro-1′H-spiro[cyclopropane-1,4′-[2,7]naphthyridine]-6′-yl)-1-((tetrahydrofuran-3-yl)methyl)-1H-pyrazol-4-yl)acrylamide]
3 | >100 | >100 | >100 | – | – | – | C=CC(=O)Nc1cnn(Cc2cccnc2)c1-c1cc2c(cn1)CN(c1c(F)c(OC)cc(OC)c1F)C(=O)C21CC1 [Example 22, N-(5-(2′-(2,6-difluoro-3,5-dimethoxyphenyl)-3′-oxo-2′,3′-dihydro-1′H-spiro[cyclopropane-1,4′-[2,7]naphthyridine]-6′-yl)-1-(pyridin-3-ylmethyl)-1H-pyrazol-4-yl)acrylamide]
4 | >100 | >100 | >100 | >100 | >100 | >100 | C=CC(=O)Nc1cc(-c2cc3c(cn2)CN(c2c(F)c(OC)cc(OC)c2F)C(=O)C32CC2)c(C)cc1F [Example 6, N-(5-(2′-(2,6-difluoro-3,5-dimethoxyphenyl)-3′-oxo-2′,3′-dihydro-1′H-spiro[cyclopropane-1,4′-[2,7]naphthyridine]-6′-yl)-2-fluoro-4-methylphenyl)acrylamide]
5 | >100 | >100 | >100 | – | – | – | C=CC(=O)Nc1cn(CCOC(F)(F)F)nc1-c1cc2c(cn1)CN(c1c(F)c(OC)cc(OC)c1F)C(=O)C21CC1 [Example 33, N-(3-(2′-(2,6-difluoro-3,5-dimethoxyphenyl)-3′-oxo-2′,3′-dihydro-1′H-spiro[cyclopropane-1,4′-[2,7]naphthyridine]-6′-yl)-1-(2-(trifluoromethoxy)ethyl)-1H-pyrazol-4-yl)acrylamide]
6 | >100 | >100 | >100 | >100 | >100 | >100 | C=CC(=O)Nc1cnc(C)c(-c2cc3c(cn2)CN(c2c(F)c(OC)cc(OC)c2F)C(=O)C32CC2)c1 [Example 7, N-(5-(2′-(2,6-difluoro-3,5-dimethoxyphenyl)-3′-oxo-2′,3′-dihydro-1′H-spiro[cyclopropane-1,4′-[2,7]naphthyridine]-6′-yl)-6-methylpyridin-3-yl)acrylamide]
7 | >100 | >100 | >100 | – | – | – | C=CC(=O)Nc1cnn(CC2CCOCC2)c1-c1cc2c(cn1)CN(c1c(F)c(OC)cc(OC)c1F)C(=O)C21CC1 [Example 24, N-(5-(2′-(2,6-difluoro-3,5-dimethoxyphenyl)-3′-oxo-2′,3′-dihydro-1′H-spiro[cyclopropane-1,4′-[2,7]naphthyridine]-6′-yl)-1-((tetrahydro-2H-pyran-4-yl)methyl)-1H-pyrazol-4-yl)acrylamide]
8 | >100 | >100 | >100 | – | – | – | C=CC(=O)Nc1cnn(CCOC)c1-c1cc2c(cn1)CN(c1c(F)c(OC)cc(OC)c1F)C(=O)C21CC1 [Example 15, N-(5-(2′-(2,6-difluoro-3,5-dimethoxyphenyl)-3′-oxo-2′,3′-dihydro-1′H-spiro[cyclopropane-1,4′-[2,7]naphthyridine]-6′-yl)-1-(2-methoxyethyl)-1H-pyrazol-4-yl)acrylamide]
9 | >100 | >100 | >100 | – | – | – | C=CC(=O)Nc1cnn(C[C@H]2CCOC2)c1-c1cc2c(cn1)CN(c1c(F)c(OC)cc(OC)c1F)C(=O)C21CC1 [Example 29, (R)-N-(5-(2′-(2,6-difluoro-3,5-dimethoxyphenyl)-3′-oxo-2′,3′-dihydro-1′H-spiro[cyclopropane-1,4′-[2,7]naphthyridine]-6′-yl)-1-((tetrahydrofuran-3-yl)methyl)-1H-pyrazol-4-yl)acrylamide]
10 | >100 | >100 | >100 | >100 | >100 | >100 | C=CC(=O)Nc1ccc(C)c(-c2cc3c(cn2)CN(c2c(F)c(OC)cc(OC)c2F)C(=O)C32CC2)c1 [Example 2, N-(3-(2′-(2,6-difluoro-3,5-dimethoxyphenyl)-3′-oxo-2′,3′-dihydro-1′H-spiro[cyclopropane-1,4′-[2,7]naphthyridine]-6′-yl)-4-methylphenyl)acrylamide]
11 | >100 | >100 | >100 | – | – | – | C=CC(=O)Nc1cnn(Cc2ccon2)c1-c1cc2c(cn1)CN(c1c(F)c(OC)cc(OC)c1F)C(=O)C21CC1 [Example 25, N-(5-(2′-(2,6-difluoro-3,5-dimethoxyphenyl)-3′-oxo-2′,3′-dihydro-1′H-spiro[cyclopropane-1,4′-[2,7]naphthyridine]-6′-yl)-1-(isoxazol-3-ylmethyl)-1H-pyrazol-4-yl)acrylamide]
12 | >100 | >50 | >100 | – | – | – | C=CC(=O)Nc1cnn(Cc2ccncc2)c1-c1cc2c(cn1)CN(c1c(F)c(OC)cc(OC)c1F)C(=O)C21CC1 [Example 21, N-(5-(2′-(2,6-difluoro-3,5-dimethoxyphenyl)-3′-oxo-2′,3′-dihydro-1′H-spiro[cyclopropane-1,4′-[2,7]naphthyridine]-6′-yl)-1-(pyridin-4-ylmethyl)-1H-pyrazol-4-yl)acrylamide]
13 | >100 | >100 | >100 | >100 | >100 | >100 | C=CC(=O)Nc1ccc(C#N)c(-c2cc3c(cn2)CN(c2c(F)c(OC)cc(OC)c2F)C(=O)C32CC2)c1 [Example 5, N-(4-cyano-3-(2′-(2,6-difluoro-3,5-dimethoxyphenyl)-3′-oxo-2′,3′-dihydro-1′H-spiro[cyclopropane-1,4′-[2,7]naphthyridine]-6′-yl)phenyl)acrylamide]
14 | >100 | >100 | >100 | – | – | – | C=CC(=O)Nc1cnn(Cc2ncn(C)n2)c1-c1cc2c(cn1)CN(c1c(F)c(OC)cc(OC)c1F)C(=O)C21CC1 [Example 23, N-(5-(2′-(2,6-difluoro-3,5-dimethoxyphenyl)-3′-oxo-2′,3′-dihydro-1′H-spiro[cyclopropane-1,4′-[2,7]naphthyridine]-6′-yl)-1-((1-methyl-1H-1,2,4-triazol-3-yl)methyl)-1H-pyrazol-4-yl)acrylamide]
15 | >100 | >100 | >100 | >100 | >100 | >100 | C=CC(=O)Nc1cc(-c2cc3c(cn2)CN(c2c(F)c(OC)cc(OC)c2F)C(=O)C32CC2)cc(N2CCOCC2)c1 [Example 10, N-{3-[2′-(2,6-difluoro-3,5-dimethoxyphenyl)-3′-oxo-2′,3′-dihydro-1′H-spiro[cyclopropane-1,4′-[2,7]naphthyridin]-6′-yl]-5-morpholin-4-ylphenyl}acrylamide]
16 | >100 | >100 | >100 | – | – | – | C=CC(=O)Nc1cn(CC(=O)N(C)C)nc1-c1cc2c(cn1)CN(c1c(F)c(OC)cc(OC)c1F)C(=O)C21CC1 [Example 36, N-(3-(2′-(2,6-difluoro-3,5-dimethoxyphenyl)-3′-oxo-2′,3′-dihydro-1′H-spiro[cyclopropane-1,4′-[2,7]naphthyridine]-6′-yl)-1-(2-(dimethylamino)-2-oxoethyl)-1H-pyrazol-4-yl)acrylamide]
17 | >100 | >100 | >100 | – | – | – | C=CC(=O)Nc1ccc(C)c(-c2ncc3c(n2)C2(CC2)C(=O)N(c2c(F)c(OC)cc(OC)c2F)C3)c1 [Example 37, N-(3-(6′-(2,6-difluoro-3,5-dimethoxyphenyl)-7′-oxo-6′,7′-dihydro-5′H-spiro[cyclopropane-1,8′-pyrido[4,3-d]pyrimidine]-2′-yl)-4-methylphenyl)acrylamide]
18 | >100 | >100 | >100 | – | – | – | C=CC(=O)Nc1cnn(CCN2CCOCC2)c1-c1cc2c(cn1)CN(c1c(F)c(OC)cc(OC)c1F)C(=O)C21CC1 [Example 19, N-(5-(2′-(2,6-difluoro-3,5-dimethoxyphenyl)-3′-oxo-2′,3′-dihydro-1′H-spiro[cyclopropane-1,4′-[2,7]naphthyridine]-6′-yl)-1-(2-morpholinoethyl)-1H-pyrazol-4-yl)acrylamide]
19 | >100 | >50 | >100 | – | – | – | C=CC(=O)Nc1cnn(C2CCOCC2)c1-c1cc2c(cn1)CN(c1c(F)c(OC)cc(OC)c1F)C(=O)C21CC1 [Example 18, N-(5-(2′-(2,6-difluoro-3,5-dimethoxyphenyl)-3′-oxo-2′,3′-dihydro-1′H-spiro[cyclopropane-1,4′-[2,7]naphthyridine]-6′-yl)-1-(tetrahydro-2H-pyran-4-yl)-1H-pyrazol-4-yl)acrylamide]
20 | >10 | >2 | >2 | >5 | >1 | >1 | C=CC(=O)N1CCCC(c2cc3c(cn2)CN(c2c(F)c(OC)cc(OC)c2F)C(=O)C32CC2)C1 (stereo not drawn) [Example 8, 6′-(1-acryloylpiperidin-3-yl)-2′-(2,6-difluoro-3,5-dimethoxyphenyl)-1′H-spiro[cyclopropane-1,4′-[2,7]naphthyridin]-3′(2′H)-one]
